Data taken from patent US11649255B2, “Indazoles as hematopoietic progenitor kinase 1 (HPK1) inhibitors and methods using same” (1st Biotherapeutics, Inc., priority 2020, dated 2023).

Target: recombinant human HPK1 (Homo sapiens (Human), UniProt Q92918)
Experiment: HPK1 kinase assay (ADP-Glo)
Format: biochemical
Conditions: 25 μM ATP, MBP substrate
Outline: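 Activity was read as ADP formed, detected by ADP-Glo luminescence after the reaction of 5 ng recombinant human HPK1 with MBP and ATP (stocks 0.5 μg/μl and 25 μM) for 40 min at 30 °C. Buffer was Tris pH 7.5 with MgCl2, BSA and DTT, with compound in 0.5% DMSO. IC50 came from inhibition curves.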

Sequence of recombinant human HPK1 (Q92918 whole entry): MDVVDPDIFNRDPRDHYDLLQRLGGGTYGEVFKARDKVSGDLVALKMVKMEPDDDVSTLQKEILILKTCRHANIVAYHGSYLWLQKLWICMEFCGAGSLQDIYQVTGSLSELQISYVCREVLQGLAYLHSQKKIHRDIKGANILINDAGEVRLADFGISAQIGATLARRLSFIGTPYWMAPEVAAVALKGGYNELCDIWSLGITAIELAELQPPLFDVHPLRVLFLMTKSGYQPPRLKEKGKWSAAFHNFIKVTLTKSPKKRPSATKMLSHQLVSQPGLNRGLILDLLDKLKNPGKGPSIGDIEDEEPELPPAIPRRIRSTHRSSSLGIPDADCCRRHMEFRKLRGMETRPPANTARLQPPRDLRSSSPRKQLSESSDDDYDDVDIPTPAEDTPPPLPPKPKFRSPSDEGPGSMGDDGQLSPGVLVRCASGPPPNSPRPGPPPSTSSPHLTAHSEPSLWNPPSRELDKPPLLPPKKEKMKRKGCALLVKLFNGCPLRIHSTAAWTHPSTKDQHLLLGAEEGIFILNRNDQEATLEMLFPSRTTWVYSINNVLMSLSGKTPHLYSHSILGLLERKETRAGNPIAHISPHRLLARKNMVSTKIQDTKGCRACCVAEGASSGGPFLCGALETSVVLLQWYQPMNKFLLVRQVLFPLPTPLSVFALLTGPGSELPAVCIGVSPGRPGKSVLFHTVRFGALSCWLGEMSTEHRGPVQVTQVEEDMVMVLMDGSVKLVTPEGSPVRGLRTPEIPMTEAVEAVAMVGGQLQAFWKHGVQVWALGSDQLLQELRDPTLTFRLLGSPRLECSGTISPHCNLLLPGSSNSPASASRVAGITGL

| SMILES | IC50 |
| --- | --- |
| CN(c1c(F)c(Cl)c(-c2ccn3nc(NC(=O)[C@@H]4C[C@@H]4F)cc3c2)c2cn[nH]c12)C1CC1 [Example 625, (1S,2S)-N-(5-(5-chloro-7-(cyclopropyl(methyl)amino)-6-fluoro-1H-indazol-4-yl)pyrazolo[1,5-a]pyridin-2-yl)-2-fluorocyclopropane-1-carboxamide] | < 100 nM |
| O=C(Nc1nc2ccc(-c3c(Cl)c(F)c(N4CCNCC4)c4[nH]ncc34)cc2s1)[C@@H]1C[C@@H]1F [Example 76, (1S,2S)-N-(6-(5-chloro-6-fluoro-7-(piperazin-1-yl)-1H-indazol-4-yl)benzo[d]thiazol-2-yl)-2-fluorocyclopropane-1-carboxamide] | 101 to 500 nM |
| COC(=O)c1c(F)c(C)c(-c2ccc3nc(NC(=O)[C@@H]4C[C@@H]4F)cn3c2)c2cn[nH]c12 [Example 305, methyl 6-fluoro-4-(2-((1S,2S)-2-fluorocyclopropane-1-carboxamido)imidazo[1,2-a]pyridin-6-yl)-5-methyl-1H-indazole-7-carboxylate] | < 100 nM |
| CNC(=O)OCCSc1c(F)c(C)c(-c2ccn3nc(NC(=O)[C@@H]4C[C@@H]4F)cc3c2)c2cn[nH]c12 [Example 546, 2-((6-fluoro-4-(2-((1S,2S)-2-fluorocyclopropane-1-carboxamido)pyrazolo[1,5-a]pyridin-5-yl)-5-methyl-1H-indazol-7-yl)thio)ethyl methylcarbamate] | < 100 nM |
| CC(=O)c1c(F)c(C)c(-c2ccc3nc(NC(=O)[C@@H]4C[C@@H]4F)cn3c2)c2cn[nH]c12 [Example 322, (1S,2S)-N-(6-(7-acetyl-6-fluoro-5-methyl-1H-indazol-4-yl)imidazo[1,2-a]pyridin-2-yl)-2-fluorocyclopropane-1-carboxamide] | 101 to 500 nM |
| Cc1c(F)c(Cl)c2[nH]ncc2c1-c1ccn2nc(NC(=O)[C@@H]3C[C@@H]3F)cc2c1 [Example 479, (1S,2S)-N-(5-(7-chloro-6-fluoro-5-methyl-1H-indazol-4-yl)pyrazolo[1,5-a]pyridin-2-yl)-2-fluorocyclopropane-1-carboxamide] | < 100 nM |
| N#CCNc1c(F)c(Cl)c(-c2ccc3nc(NC(=O)[C@@H]4C[C@@H]4F)cn3c2)c2cn[nH]c12 [Example 366, (1S,2S)-N-(6-(5-chloro-7-((cyanomethyl)amino)-6-fluoro-1H-indazol-4-yl)imidazo[1,2-a]pyridin-2-yl)-2-fluorocyclopropane-1-carboxamide] | < 100 nM |
| O=C(Nc1cn2cc(-c3c(Cl)c(F)cc4[nH]ncc34)ccc2n1)[C@@H]1C[C@@H]1F [Example 243, (1S,2S)-N-(6-(5-chloro-6-fluoro-1H-indazol-4-yl)imidazo[1,2-a]pyridin-2-yl)-2-fluorocyclopropane-1-carboxamide] | < 100 nM |
| CSc1c(F)cc2[nH]ncc2c1-c1cc2sc(NC(=O)[C@@H]3C[C@@H]3F)nc2cn1 [Example 219, (1S,2S)-2-fluoro-N-(6-(6-fluoro-5-(methylthio)-1H-indazol-4-yl)thiazolo[4,5-c]pyridin-2-yl)cyclopropane-1-carboxamide] | 101 to 500 nM |
| Nc1c(F)c(Cl)c(-c2ccn3nc(NC(=O)[C@@H]4C[C@@H]4F)cc3c2)c2cn[nH]c12 [Example 510, (1S,2S)-N-(5-(7-amino-5-chloro-6-fluoro-1H-indazol-4-yl)pyrazolo[1,5-a]pyridin-2-yl)-2-fluorocyclopropane-1-carboxamide] | < 100 nM |
| Cc1cccn1-c1c(F)c(Cl)c(-c2ccc3nc(NC(=O)[C@@H]4C[C@@H]4F)cn3c2)c2cn[nH]c12 [Example 388, (1S,2S)-N-(6-(5-chloro-6-fluoro-7-(2-methyl-1H-pyrrol-1-yl)-1H-indazol-4-yl)imidazo[1,2-a]pyridin-2-yl)-2-fluorocyclopropane-1-carboxamide] | < 100 nM |
| CCNc1c(F)c(Cl)c(-c2ccc3nc(NC(=O)[C@@H]4C[C@@H]4F)sc3n2)c2cn[nH]c12 [Example 159, (1S,2S)-N-(5-(5-chloro-7-(ethylamino)-6-fluoro-1H-indazol-4-yl)thiazolo[5,4-b]pyridin-2-yl)-2-fluorocyclopropane-1-carboxamide] | < 100 nM |
| O=C(Nc1cn2cc(-c3c(Cl)c(F)c(-c4cnc[nH]4)c4[nH]ncc34)ccc2n1)[C@@H]1C[C@@H]1F [Example 431, (1S,2S)-N-(6-(5-chloro-6-fluoro-7-(1H-imidazol-5-yl)-1H-indazol-4-yl)imidazo[1,2-a]pyridin-2-yl)-2-fluorocyclopropane-1-carboxamide] | 101 to 500 nM |
| CCNC(=O)C(C)c1c(F)c(Cl)c(-c2ccc3nc(NC(=O)[C@@H]4C[C@@H]4F)cn3c2)c2cn[nH]c12 (stereo partly drawn) [Example 445, (1S,2S)-N-(6-(5-chloro-7-(1-(ethylamino)-1-oxopropan-2-yl)-6-fluoro-1H-indazol-4-yl)imidazo[1,2-a]pyridin-2-yl)-2-fluorocyclopropane-1-carboxamide] | < 100 nM |
| CN(C)c1c(F)cc(-c2ccn3nc(NC(=O)[C@@H]4C[C@@H]4F)cc3c2)c2cn[nH]c12 [Example 583, (1S,2S)-N-(5-(7-(dimethylamino)-6-fluoro-1H-indazol-4-yl)pyrazolo[1,5-a]pyridin-2-yl)-2-fluorocyclopropane-1-carboxamide] | < 100 nM |
| O=C(Nc1cc2cc(-c3c(Cl)c(F)c(C4CC(O)CO4)c4[nH]ncc34)ccn2n1)[C@@H]1C[C@@H]1F (stereo partly drawn) [Example 658, (1S,2S)-N-(5-(5-chloro-6-fluoro-7-(4-hydroxytetrahydrofuran-2-yl)-1H-indazol-4-yl)pyrazolo[1,5-a]pyridin-2-yl)-2-fluorocyclopropane-1-carboxamide] | < 100 nM |
| O=C(Nc1cn2cc(-c3c(Cl)c(F)c(Cn4ccnn4)c4[nH]ncc34)ccc2n1)[C@@H]1C[C@@H]1F [Example 384, (1S,2S)-N-(6-(7-((1H-1,2,3-triazol-1-yl)methyl)-5-chloro-6-fluoro-1H-indazol-4-yl)imidazo[1,2-a]pyridin-2-yl)-2-fluorocyclopropane-1-carboxamide] | < 100 nM |
| CNC(=O)OCCN(C)c1c(F)c(C)c(-c2ccc3nc(NC(=O)[C@@H]4C[C@@H]4F)sc3n2)c2cn[nH]c12 [Example 202, 2-((6-fluoro-4-(2-((1S,2S)-2-fluorocyclopropane-1-carboxamido)thiazolo[5,4-b]pyridin-5-yl)-5-methyl-1H-indazol-7-yl)(methyl)amino)ethyl methylcarbamate] | < 100 nM |
| COC[C@H](C)c1c(F)c(Cl)c(-c2ccn3nc(NC(=O)[C@@H]4C[C@@H]4F)cc3c2)c2cn[nH]c12 [Example 655, (1S,2S)-N-(5-(5-chloro-6-fluoro-7-((R)-1-methoxypropan-2-yl)-1H-indazol-4-yl)pyrazolo[1,5-a]pyridin-2-yl)-2-fluorocyclopropane-1-carboxamide] | < 100 nM |
| CCc1ccc2[nH]ncc2c1-c1ccc2nc(NC(=O)C3CC3)cn2c1 [Example 234, N-(6-(5-ethyl-1H-indazol-4-yl)imidazo[1,2-a]pyridin-2-yl)cyclopropanecarboxamide] | > 1000 nM |
| O=C(Nc1cc2cc(-c3cc(F)c(OC(F)(F)F)c4[nH]ncc34)ccn2n1)[C@@H]1C[C@@H]1F [Example 587, (1S,2S)-2-fluoro-N-(5-(6-fluoro-7-(trifluoromethoxy)-1H-indazol-4-yl)pyrazolo[1,5-a]pyridin-2-yl)cyclopropane-1-carboxamide] | < 100 nM |
